US20170165317A1, “METHOD FOR MITIGATING OR ALLEVIATING SYNAPTIC AND COGNITIVE DEFICITS” (Trustees of Dartmouth College, priority 2013, published 2017)
Square brackets hold non-standard residues; d marks the D form. Peptide text beside a SMILES is read from it. * marks the point of attachment. ξ: configuration not given here. Myristoyl = CCCCCCCCCCCCCC(=O)*; dThr(3ξ) = CC(O)[C@@H](N)C(=O)O; Ile(3ξ) = CCC(C)[C@H](N)C(=O)O

Columns and labels:
APP/PS1 mice = test: Novel object location task after i.c.v. infusion by osmotic minipump; format: in vivo, mouse; conditions: APP/PS1 mice, peptide 2 mM in pump, i.c.v. 3-4 weeks; p=0.027 vs vehicle-infused APP/PS1; recognition index similar to wild-type
Method: APP/PS1 and wild-type mice were anesthetized with isofluorane, and i.c.v. delivery cannulas (brain alzet kit III) were implanted with a stereotaxic frame (KOPF Instruments) at the following coordinates according to the bregma: AP, −0.5 mm; ML, 1 mm; and DV, −2.2 mm. Osmotic minipumps (Alzet) were filled with artificial cerebrospinal fluid (aCSF) with or without PTEN inhibitor VO-OHpic (2.5 μM) and equilibrated in 0.9% NaCl at 37° C. for 48 hours. They were attached to the i.c.v. cannula tubing and subcutaneously implanted at the back. After 21 days, behavioral testing was started as described herein. One month after implantation, mice were sacrificed and the brains were sliced stained with Nissl to verify the location of the cannula. Animal manipulation and data analysis was carried out blind with respect to genotype and treatment.
Novel-Object Location. This assay was chosen because it is not intrinsically stressful. This factor, in mice, crucially affects cognitive performance in other spatial learning paradigms (e.g., Morris water maze). The memory tests were composed of three phases—“habituation”, “sample” and “choice” trials. Mice were first habituated individually to an empty open-field box (35×35×15 high cm) for 30 minutes. A sample trial (object exposure) consisted of placing a mouse into the test box which contained two identical objects. […] A recognition index was calculated by dividing the total time spent exploring the displaced object by the total time spent exploring both objects during the test session. […]
It was posited that if early Aβ-induced cognitive impairment results from a general synaptic bias toward LTD events (Selkoe (2002) Science 298:789-791), dampening this form of synaptic plasticity might prevent cognitive decay. Therefore, it was determined whether in vivo inhibition of PTEN, a lipid phosphatase that is involved in LTD (Jurado, et al. (2010) EMBO J. 29:2827-2840), would rescue cognitive deficits in APP/PS1 mice. […]

[1] = system: hippocampal CA3 and CA1 cells from acute slices; test: fEPSP input-output curve (basal synaptic transmission) in acute hippocampal slices exposed to protofibrillar Aβ42; format: cell-based, mice; conditions: for basal synaptic transmission in the absence of Aβ treatment: peptide alone; for Aβ-induced synaptic depression: slices preincubated with peptide 1 hour before synthetic protofibrillar Aβ
Method: Mice were anesthetized with sodium pentothal (20 mg/kg ip) and decapitated. The brain was rapidly removed to ice-cold, oxygenated, dissection solution. Coronal slices (300 μm) were made with a vibratome (LEICA VT1200S) and slices were moved to a recovery chamber containing aCSF at room temperature for at least 1.5 hour before recording.
(§1) A concentric bipolar platinum-iridium stimulation electrode and a low-resistance glass recording microelectrode filled with aCSF (3-4 MΩ resistance) were placed in CA1 stratum radiatum to record the extracellular field excitatory postsynaptic potentials (fEPSPs). For each slice, an input-output curve was recorded to compare basal synaptic transmission at different conditions. This curve was also used to set the baseline fEPSP at ≈30% (for LTP experiments) or ≈50% (for LTD experiments) of maximal slope. Baseline stimulation was delivered every 15 seconds (0.01 ms duration pulses) for at least 20 minutes before beginning the experiment to ensure stability of the response. LTP was induced by using θ-burst stimulation (4 pulses at 100 Hz, with the bursts repeated at 5 Hz and each tetanus including three 10-burst trains separated by 15 seconds). LTD was induced using 900 pulses at 1 Hz. Responses were recorded for 1 hour after induction of LTP or LTD.
Dissection solution (employed for slicing) composition: 10 mM D-glucose, 4 mM KCl, 26 mM NaHCO3, 233.7 mM sucrose, 5 mM MgCl2, 1:1000 Phenol Red. Artificial CSF (employed for recovery and recording) composition: 119 mM NaCl, 2.5 mM KCl, 1 mM NaH2PO4, 11 mM glucose, 1.2 mM MgCl2, 2.5 mM CaCl2. Osmolarity was adjusted to […].
For the first approach, protofibrillar Aβ was prepared by promoting aggregation under high-salt conditions (258 μM Aβ42, room temperature incubation (Jan, et al. (2010) Nat. Protoc. 5:1186-1209). The kinetics of Aβ42 aggregation were followed by thioflavin T fluorescence and SDS-PAGE western blot analysis with the N-terminal anti-Aβ antibody 6E10. Also, the heterogeneous nature of these Aβ42 assemblies was evidenced by electron microscopy. Synaptic function was assessed by electrophysiological recordings of field excitatory postsynaptic potential (fEPSPs) between hippocampal CA3 and CA1 cells from acute slices prepared from 5-month-old mice. The results indicated a ≈60% decrease in the magnitude of synaptic transmission (input-output curve) when slices were incubated for 2 hours in aCSF containing pathogenic protofibrillar Aβ42 species (1 μM). This decrease in the basal synaptic transmission was prevented when Aβ was added to slices that were preincubated with the PTEN inhibitor (50 nM VO-OHpic) for 1 hour (VO-OHpic and Aβ were also present in the perfusion solution during electrophysiological recordings). VO-OHpic alone had no effect on basal synaptic transmission. […] The potency and specificity of this inhibitor have been documented previously (Rosivatz, et al. (2006) ACS Chem. Biol. 1:780-790).
The effect of these peptides on Aβ-treated neurons was subsequently tested.

acute mice slices = test: LTD of fEPSPs in acute hippocampal slices; format: cell-based; conditions: peptide 10 μM, 1-2.5 hours incubation
Method: as §1
It was posited that the PTEN-PDZ peptide would saturate PDZ interaction sites of PTEN, consequently preventing anchoring of PTEN to PDZ proteins, and in this manner it would prevent LTD.

Aβ42 = target: T1, Aβ42 (Homo sapiens, UniProt P05067); test: Thioflavin-T fluorescence assay of Aβ42 aggregation; format: biochemical; conditions: 50 nM VO-OHpic or 15 nM bPV(HOpic), 37° C.
T1 construct: Lyophilized Aβ42 peptide was purchased from Keck Facility at Yale University; purchased Keck Facility at Yale University; host or cells: synthetic peptide
T1 sequence (P05067 672-713): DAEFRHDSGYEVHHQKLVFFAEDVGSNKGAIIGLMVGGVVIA
Method: Freshly prepared Aβ42 was prepared as described for protofibrillar Aβ42. The Thioflavin-T (ThT) assay was carried out at 37° C., within a dark chamber in a 96-well plate. Each well contained 100 ng/μL of Aβ42, 20 μM ThT and 50 nM VO-OHpic or 15 nM bPV(HOpic). Fluorescence (λex=450 nm; λem=485 nm) was followed over time in a FLUOSTAR OPTIMA (BMG LabTech) fluorescence spectrophotometer. Samples were run in triplicates. […] Thus, the observed rescue of basal synaptic transmission, LTP and cognition, with VO-OHpic was not likely due to an altered aggregation state of Aβ upon PTEN inhibition.

[2] = system: APPswe/lnd-expressing neurons; test: Paired whole-cell recording of AMPAR-mediated EPSCs in APPswe/lnd-expressing CA1 neurons of organotypic hippocampal slices; format: cell-based, rat; conditions: 15 nM bPV(HOpic) or 50 nM VO-OHpic during expression
Method: The effect of recombinant protein expression on synaptic transmission was evaluated by simultaneous double whole-cell recordings from pairs of nearby infected and uninfected CA1 neurons, under voltage clamp, while stimulating presynaptic Schaffer collateral fibers (under this configuration, recombinant proteins are expressed exclusively in the postsynaptic neuron).
The different versions of APP (APPwt, APPswe/lnd APPMV) and EGFP were co-expressed using an internal ribosomal entry site (IRES) construct. The EGFP-tagged versions of PTEN have been described (Jurado, et al. (2010) EMBO J. 29:2827-2840). All constructs were prepared in pSinRep5 for expression using Sindbis virus. Recombinant proteins were expressed in hippocampal CA1 pyramidal neurons from organotypic slice cultures. Organotypic hippocampal slices were prepared from postnatal day 5-7 rats and cultured during 6-8 days.
The external solution (aCSF) contained 119 mM NaCl, 2.5 mM KCl, 1 mM NaH2PO4, 11 mM glucose, 26 mM NaHCO3, 4 mM MgCl2, 4 mM CaCl2, 100 μM picrotoxin and 2 μM 2-chloroadenosine, pH 7.4, and was gassed with 95% O2 and 5% CO2. […] Bipolar stimulating electrodes were placed over Schaffer collateral fibers between 250 and 300 μm from the CA1 recorded cells, and synaptic responses were evoked with single voltage pulses (200 μs, up to 30 V). […]

Row | Structure (SMILES) | spatial learning task (novel object location, recognition index) (APP/PS1 mice) | basal synaptic transmission in the absence of Aβ treatment [1] | Aβ-induced synaptic depression [1] | Aβ-induced synaptic depression ([1]; listed as N-myristoyl-QHSQITKV) | LTD (fEPSP slope 50-60 minutes after induction) (acute mice slices) | Aβ42 aggregation (ThT fluorescence) (Aβ42) | AMPAR-mediated EPSCs in APPswe/lnd-expressing neurons relative to uninfected cells [2]
1 | CCCCCCCCCCCCCC(=O)N[C@@H](CCC(N)=O)C(=O)N[C@H](Cc1c[nH]cn1)C(=O)N[C@@H](CO)C(=O)N[C@H](CCC(N)=O)C(=O)N[C@H](C(=O)N[C@@H](C(=O)N[C@@H](CCCCN)C(=O)N[C@@H](C(=O)O)C(C)C)C(C)O)C(C)CC (stereo partly shown) [PTEN-PDZ peptide, N-myristoyl-QHSQITKV] (Myristoyl-Q[dH]S[dQ][Ile(3ξ)][dThr(3ξ)]K[dV]-OH) | significant improvement | neither peptide altered basal synaptic transmission | prevented synaptic depression | blocks Aβ-induced synaptic depression | completely blocked LTD |  | 
2 | O=C1C=C/C(=C(/[O-])O)N=C1.[K+].[O-][O-].[O-][O-].[O]=[V] [bPV(HOpic)] |  |  |  |  |  | does not alter Aβ42 aggregation | no longer depressed
3 | CCCCCCCCCCCCCC(=O)N[C@@H](CO)C(=O)N[C@@H](C(=O)N[C@@H](Cc1c[nH]cn1)C(=O)N[C@@H](C(=O)N[C@H](C(=O)N[C@H](CCC(N)=O)C(=O)N[C@@H](CCCCN)C(=O)N[C@H](CCC(N)=O)C(=O)O)C(C)CC)C(C)O)C(C)C (stereo partly shown) [scrambled peptide, N-myristoyl-SVHTIQKQ] (Myristoyl-S[dV]H[dThr(3ξ)][Ile(3ξ)][dQ]K[dQ]-OH) |  | neither peptide altered basal synaptic transmission | did not |  | did not have any effect |  | 
